Tests used:
testis of I/R rats [1] = experiment: Testicular testosterone in testis of I/R rats (ELISA); type: in vivo; set-up: unit not given here; details: i.p. 1 h before ischemia, dose equivalent to 30 mg NAC, mean ± S.E.M, n=6
Description: This section describes the methods used in the investigation of the antiapoptotic effect of the novel compounds 6a–g then supported by further histological and molecular docking studies. The antiapoptotic effect of 6a–g was evaluated through evaluation of decreasing tissue damage induced by I/R in the testis of rats in a dose equivalent to 30 mg N-acetylcysteine (NAC) as an antiapoptotic reference. The rats were subdivided into sham, I/R, NAC and treated with tested compounds groups, each group comprises of 6 rats (weighing 140–150 g). The targeted compounds 6a–g were administrated intra-peritoneal (i.p.) an hour before ischemia, which lasted for (0.5 h) then reperfusion (1 h) followed by cutting the organ (Figure 5). Different biomarkers concentrations were measured in serum to detect testis injury due to ischemia/reperfusion (I/R).
It was reported that excessive apoptosis in the testis could damage the Leydig cells and apparent decline in serum testosterone levels. Furthermore, excessive apoptosis of Leydig cells results in decreased testosterone. The assays of the apoptotic biomarkers (testicular testosterone and TNFα) were done in comparison with the sham and NAC treated group and the results were outlined in Table S4 (Supplementary Materials).
TNF-α was measured by ELISA kit (Elabscience, Houston, TX, USA). Caspase-3 was measured by ELISA kit Cusabio, Houston, TX, USA (See Supplementary Materials). Testosterone concentration in testicular samples was determined by the ELISA kit (“DRG”, Marburg, Germany) (See Supplementary Materials).
1.2.Determination of serum testosterone using ELISA kit
This ELISA kit uses the Competitive-ELISA principle. The micro ELISA plate provided in this kit has been pre-coated with T. During the reaction, T in the sample or standard competes with a fixed amount of T on the solid phase supporter for sites on the Biotinylated Detection Ab specific to T. Excess conjugate and unbound sample or standard are washed from the plate, and Avidin conjugated to Horseradish Peroxidase (HRP) are added to each microplate well and incubated. Then a TMB substrate solution is added to each well. The enzyme-substrate reaction is terminated by the addition of stop solution and the color change is measured spectrophotometrically at a wavelength of 450 nm ± 2 nm. The concentration of T in the samples is then determined by comparing the OD of the samples to the standard […]
Serum: Allow samples to clot for 2 hours at room temperature or overnight at 4℃ before centrifugation for 20 min at 1000×g at 2-8℃. Collect the supernatant to carry out the assay. Blood collection tubes should be disposable and be non-endotoxin. […]
1. Bring all reagents to room temperature (18~25℃) before use. Follow the Microplate reader manual for set-up and preheat it for 15 min before OD measurement.
2. Wash Buffer: Dilute 30 mL of Concentrated Wash Buffer with 720 mL of deionized or distilled water to prepare 750 mL of Wash Buffer. Note: if crystals have formed in the concentrate, warm it in a 40℃ water-bath and mix it gently until the crystals have completely dissolved.
3. Standard working solution: Centrifuge the standard at 10,000×g for 1min. Add 1.0mL of Reference Standard &Sample Diluent, let it stand for 10min and invert it gently several times. After it dissolves fully, mix it thoroughly with a pipette. This reconstitution produces a working solution of 20 ng/mL. Then make serial dilutions as needed. The recommended dilution gradient is as […]
Dilution method: Take 7 EP tubes, add 500uL of Reference Standard & Sample Diluent to each tube. Pipette 500uL of the 20 ng/mL working solution to the first tube and mix up to produce a 10 ng/mL working solution. Pipette 500uL of the solution from the former tube to the latter one according to this step. The illustration below is for reference. Note: the last tube is regarded as a blank. Don’t pipette solution into it from the former tube.

testis of I/R rats [2] = experiment: Testicular histopathology (H&E, Cosentino's score, Johnson's scoring) in I/R rats; type: in vivo; details: for Histopathological/spermatogenesis scoring difference compared to the reference (NAC): Cosentino's score and Johnson's scoring, p-value < 0.005; for Histopathological finding in testis sections: H&E sections
Description: Also, it decreased spermatogenesis when compared to the control group by using Johnson’s scoring system (Figure 9B).
The seminiferous tubules were seen lined with stratified testicular epithelium rested on basement membranes. […] Ruptured tubules and distorted Leydig cells and sloughed cells could be also observed (Figure 10B). […] Distorted Leydig cells with dilated blood vessels (BV) were frequently seen among the sections (Figure 12). […] Dilated blood vessels and the presence of amyloid substance were also found (Figure 13).
Multiple testicular specimens were stained by hematoxylin-eosin (ab245880, Abcam, Cambridge, MA, USA) using Cosentino’s score for semi-quantitation of pathological changes in different seminiferous tubules. By using Johnson’s scoring system, the effect of ischemia on the spermatogenesis can be studied (See Supporting Materials).
Semi-quantitative data were measured and counted per section in ten randomly selected non-overlapping fields using power × 400 magnifications of the sections from each rat. The results were carried out using the Image J program analysis software (Image J 1.48V, Maryland, MD, USA; Wayne Rasb and National Institutes of Health). […]
4. Histopathological Investigation
Multiple testicular specimens were fixed in Bouin's solution for about 24 hour, dehydrated in an alcohol grades, cleaned with xylene and then embedded in paraffin wax. Tissue sections (about six μm) were stained by haematoxylin–eosin (H&E) and were studied by an experienced histologist. In the current study, we used Cosentino's score for semi-quantitation of pathological changes on different seminiferous tubules in the whole groups by grading these tubules between one and four, and the mean scores were taken by dividing the totality to the whole number of testicular tubules .
By using Johnson’s scoring system, the effect of ischemia on the spermatogenesis can be studied.
The grades were counted one to ten, and the total scores were taken by dividing the totality to the whole number of testicular tubules.
4.2.Histopathological grading score (Cosentino's score)
I Normal testicular structure
II less orderly germinal cells with closely packed seminiferous tubules III Anarchic sloughed germinal cells, with less pyknotic nuclei size and less distinct seminiferous […]
IV Closely packed seminiferous tubules and coagulative necrosis
Note: Semi-quantitation of pathological changes on different seminiferous tubules in the whole groups by grading the tubules between 1 and 4, and the mean scores were obtained by dividing the totality to the whole number of testicular tubules.
4.3.Spermatogenesis grading; Score Morphological picture
10 Normal spermatogenesis
9 less defect in spermatogenesis with multiple late spermatids, little disorganized epithelium 8 Less than five spermatozoa/tubule, less late spermatids
7 Absence of spermatozoa, absent late spermatids, more early spermatids 6 No spermatozoa, absence of late spermatids with little early spermatids 5 No spermatozoa or spermatids, more spermatocytes
4 No spermatozoa or spermatids, fewer spermatocytes
2 No germinal cells, only Sertoli cells
1 No seminiferous epithelium
Note: By using Johnsen's scoring system, the effect of ischaemia on the spermatogenesis can be detected. The grades were from 1 to 10, and the total scores were taken by dividing to the whole number of testicular tubules.

SMILES	Testicular testosterone (testis of I/R rats [1])	Histopathological/spermatogenesis scoring difference compared to the reference (NAC) (testis of I/R rats [2])	Histopathological finding in testis sections (testis of I/R rats [2])	melting point
COc1ccc2[nH]c(=O)cc(OCc3cn(-c4cc(=O)[nH]c5ccccc45)nn3)c2c1 [6g, 6-Methoxy-4-((1-(2-oxo-1,2-dihydroquinolin-4-yl)-1H-1,2,3-triazol-4-yl)methoxy)quinolin-2-(1H)-one]	3.45±0.22	weak significant differences	dilated seminiferous tubules	300 to 302 °C
CC(=O)N[C@@H](CS)C(=O)O [NAC, N-acetylcysteine, reference compound]			more or less normal seminiferous tubules and Leydig cells except some areas displayed distorted tubules and widening of inter-tubular spaces	
Cc1ccc2[nH]c(=O)cc(OCc3cn(-c4cc(=O)[nH]c5ccccc45)nn3)c2c1 [6e, 6-Methyl-4-((1-(2-oxo-1,2-dihydroquinolin-4-yl)-1H-1,2,3-triazol-4-yl)methoxy)quinolin-2(1H)-one]	3.62±0.17	weak significant differences	dilated seminiferous tubules	272 to 274 °C
COc1ccc2[nH]c(=O)cc(-n3cc(COc4cc(=O)[nH]c5ccccc45)nn3)c2c1 [6c, 6-Methoxy-4-(4-(((2-oxo-1,2-dihydroquinolin-4-yl)oxy)methyl)-1H-1,2,3-triazol-1-yl)-quinolin-2(1H)-one]	5.00±0.26			295 to 297 °C
Cn1c(=O)cc(-n2cc(COc3cc(=O)[nH]c4ccccc34)nn2)c2ccccc21 [6d, 1-Methyl-4-(4-(((2-oxo-1,2-dihydroquinolin-4-yl)oxy)methyl)-1H-1,2,3-triazol-1-yl)quinolin-2(1H)-one]	2.67±0.25	highly significant histopathological difference	ruptured seminiferous tubules with distorted Leydig cells	285 to 287 °C
Cc1ccc2[nH]c(=O)cc(OCc3cn(-c4cc(=O)[nH]c5ccc(C)cc45)nn3)c2c1 [6f, 6-Methyl-4-((1-(6-methyl-2-oxo-1,2-dihydroquinolin-4-yl)-1H-1,2,3-triazol-4-yl)meth-oxy)quinolin-2(1H)-one]	1.83±0.14	highly significant histopathological difference	ruptured seminiferous tubules with distorted Leydig cells	270 to 272 °C

— article PMC7672604, “Design, Synthesis, Molecular Docking, Antiapoptotic and Caspase-3 Inhibition of New 1,2,3-Triazole/Bis-2(1H)-Quinolinone Hybrids” (Molecules, 2020)
